Measured values reported in US20220119840A1, “CLOSED-ENDED DNA (CEDNA) AND USE IN METHODS OF REDUCING GENE OR NUCLEIC ACID THERAPY RELATED IMMUNE RESPONSE” (Generation Bio Co., priority 2019, published 2022).
Entries after “also recorded” stand apart in the source; their conditions may differ. Where two headings read alike, the source gives them in different places.

Columns and labels:
[1] = tested on: IRF pathway; assay: THP-1 Dual reporter assay, interferon (IRF pathway) induction, Quanti-Luc; assay type: cell-based; conditions: for effect on ceDNA-induced interferon induction: inhibitor pretreatment 2 h, 0.625-2.5 μM; for concentration giving maximal inhibition of interferon induction: doses 0.625, 1.25, 2.5 μM
[2] = tested on: IFN-α, IFN-γ, IL-6, IP-10, IL-18, IL-1β, MCP-1, and TNF-alpha; assay: ProcartaPlex multiplex cytokine immunoassay after TTX-9 ceDNA with inflammasome inhibitor pre-treatment; assay type: in vivo; conditions: C57bL mice, inhibitor i.p. 12-16 h and 1 h before 0.5 mg/kg ceDNA (TTX9-LNP) IV
[3] = molecular target: T1, human TLR9 (Homo sapiens, UniProt Q9NR96); assay: HEK-BLUE.hTLR9 NF-κB/SEAP assay (Quanti-BLUE); assay type: cell-based; conditions: A151 10 μM, 3 h pretreatment, 300 ng ceDNA
T1 construct: host or cells: HEK-293 (HEK-BLUE.hTLR9 cells)
T1 sequence (Q9NR96 26-1032): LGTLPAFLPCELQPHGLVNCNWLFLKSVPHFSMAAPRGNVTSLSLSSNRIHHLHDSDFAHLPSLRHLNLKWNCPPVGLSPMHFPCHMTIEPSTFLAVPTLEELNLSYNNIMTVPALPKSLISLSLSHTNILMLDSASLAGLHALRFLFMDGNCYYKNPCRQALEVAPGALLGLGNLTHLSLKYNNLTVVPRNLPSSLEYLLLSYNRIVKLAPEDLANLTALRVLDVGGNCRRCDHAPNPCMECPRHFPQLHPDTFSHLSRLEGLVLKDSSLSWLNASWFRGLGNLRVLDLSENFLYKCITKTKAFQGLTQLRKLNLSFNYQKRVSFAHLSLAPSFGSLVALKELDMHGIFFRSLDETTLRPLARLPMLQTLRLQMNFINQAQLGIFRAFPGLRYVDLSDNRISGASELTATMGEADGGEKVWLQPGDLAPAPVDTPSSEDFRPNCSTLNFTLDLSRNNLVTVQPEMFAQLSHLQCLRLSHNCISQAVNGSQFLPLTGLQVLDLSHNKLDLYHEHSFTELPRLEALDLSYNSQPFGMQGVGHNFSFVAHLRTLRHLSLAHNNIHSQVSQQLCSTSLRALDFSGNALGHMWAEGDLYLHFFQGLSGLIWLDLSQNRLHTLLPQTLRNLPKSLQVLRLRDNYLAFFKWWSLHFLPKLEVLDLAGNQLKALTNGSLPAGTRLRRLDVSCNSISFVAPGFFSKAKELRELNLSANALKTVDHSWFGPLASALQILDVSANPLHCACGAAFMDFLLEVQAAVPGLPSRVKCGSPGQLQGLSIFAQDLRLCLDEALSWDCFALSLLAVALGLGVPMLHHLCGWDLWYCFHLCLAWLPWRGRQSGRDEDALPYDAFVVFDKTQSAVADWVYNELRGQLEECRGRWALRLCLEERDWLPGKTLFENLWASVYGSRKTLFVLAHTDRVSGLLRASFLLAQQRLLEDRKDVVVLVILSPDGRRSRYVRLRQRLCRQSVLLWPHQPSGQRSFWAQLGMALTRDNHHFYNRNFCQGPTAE

[4] = tested on: Factor IX deficient mice; assay: Factor IX plasma ELISA, ceDNA encoding Factor IX and A151; assay type: in vivo

| Compound | effect on ceDNA-induced interferon induction [1] | levels of IL-18 [2] | concentration giving maximal inhibition of interferon induction [1] [µM] | other results |
| --- | --- | --- | --- | --- |
| O=C(NCCCNc1nc(Nc2cccc(NC(=O)N3CCCC3)c2)ncc1I)c1cccs1 [BX795, N-[3-[[5-Iodo-4-[[3-[(2-thienylcarbonyl)amino]propyl]amino]-2-pyrimidinyl]amino]phenyl]-1-pyrrolidinecarboxamide] | similarly reduce this interferon pathway activation; also recorded: abrogation of ceDNA-induced interferon induction |  |  |  |
| CC(C)(O)c1coc(S(=O)(=O)NC(=O)Nc2c3c(cc4c2CCC4)CCC3)c1 [MCC950] |  | significant reduction of IFN-γ; also recorded: significantly reduced |  | levels of IFNγ [2]: significant reduction of IFN-γ; also recorded: significantly reduced; levels of IP-10 [2]: reduction in levels |
| CO[C@H]1C[C@@H]2CC[C@@H](C)[C@@](O)(O2)C(=O)C(=O)N2CCCC[C@H]2C(=O)O[C@H]([C@H](C)C[C@@H]2CC[C@@H](O)[C@H](OC)C2)CC(=O)[C@H](C)/C=C(\C)[C@@H](O)[C@@H](OC)C(=O)[C@H](C)C[C@H](C)/C=C/C=C/C=C/1C [RAPA, rapamycin] |  |  |  | RAPA solubility in the dispersed nanocarrier phase (PLA and PLA-PEG as nanocarrier polymers): 8.4 % wt/wt; RAPA solubility in the dispersed nanocarrier phase (PLGA and PLA-PEG as nanocarrier polymers): 7.2 % wt/wt |
| CCO[C@@H]1OC(=O)C[C@@H]1NC(=O)[C@@H]1CCCN1C(=O)[C@@H](NC(=O)c1ccc(N)c(Cl)c1)C(C)(C)C [VX765, (S)-1-((S)-2-{[1-(4-amino-3-chloro-phenyl)-methanoyl]-amino}-3,3-dimethyl-butanoyl)-pyrrolidine-2-carboxylic acid ((2R,3S)-2-ethoxy-5-oxo-tetrahydro-furan-3-yl)-amide] |  | reduced |  |  |
| A151: oligonucleotide TTAGGGTTAGGGTTAGGGTTAGGG (SEQ ID NO:892) | similarly reduce this interferon pathway activation; also recorded: dose-dependency of interferon induction inhibition; also recorded: concentration-dependent |  | 2.5 | ceDNA-stimulated NF-κB induction in presence of inhibitor [3]: reduced the ceDNA-stimulated NF-κB induction to the same degree as methylation of CpG; also recorded: minimal levels of NF-κB induction; cytokine secretion upon re-dose ([4]; versus ceDNA vector encoding only Factor IX): less activation of cytokine secretion; expression of factor IX ([4]; versus ceDNA vector expressing only Factor IX): increased and/or sustained expression of factor IX |
| AS1411: TLR9 inhibitory oligonucleotide GGTGGTGGTGGTTGTGGTGGTGGTGG, SEQ ID NO: 903 (chemistry not given here) | dose-dependency of interferon induction inhibition; also recorded: concentration-dependent |  | 2.5 |  |
